According to PubChem BioAssay (NCI):
Values joined by “and” are separate entries in the source; they are usually repeats but may differ in a detail not shown here. Identical values can stand only once.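 These data come from cells grown in 96-well plates and exposed to compound for 48 hours at five concentrations. GI50 is the concentration that inhibits growth by half. TGI: concentration producing complete growth inhibition.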 Where a SMILES comes first, the peptide text is derived from it. The star is where a group is joined. Cbz = O=C(OCc1ccccc1)*

Each compound was assayed on ACHN renal (assay: NCI tumour cell line growth inhibition, 48 h).

Row | Structure (SMILES) | TGI | GI50
1 | COc1ccc(CNc2nc(NC3CCCCC3)nc(NC3CCCCC3)n2)cc1 | > 100 µM | 
2 | S=C1NCCN1C(=S)Nc1ccccc1 | > 100 µM | 
3 | CCOC(=O)c1ccc(-c2ccc(Cl)cc2)[nH]1 | > 10 µM | 
4 | CC1CC(Nc2ccc(Br)cc2)N(C(=O)c2ccc(Br)cc2)O1 (stereo not given) | > 10 µM | 
5 | OC(C/C=N/N=C/CC(O)(C(F)(F)Cl)C(F)(F)Cl)(C(F)(F)Cl)C(F)(F)Cl | > 10 µM | 
6 | COc1cc2c(cc1O)NC(=O)[C@@H]1CCCN1C2=O | > 100 µM | 
7 | COc1ccc2nc(-c3ccccc3)c(=O)[nH]c2c1 | > 100 µM | 
8 | O=C1C=C(Nc2ccc(S(=O)(=O)Nc3nccs3)cc2)c2ccccc2C1=O | 63.5 µM | 
9 | C=CC1(CC[C@]2(c3ccc(OC)c(OC)c3)C=[N+]([O-])O[C@H](O[C@@H]3CCCC[C@H]3C(C)(C)c3ccccc3)C2)OCC(C)(C)CO1 | > 50 µM | 
10 | Oc1c(Br)ccc2cccnc12 | 55.8 µM | 
11 | O=c1[nH]c2nc3ccccc3c(=O)n2/c1=C/c1cccs1 | > 100 µM | 
12 | Cc1cc(C)nc(NC(P(=O)(O)O)P(=O)(O)O)n1 | > 100 µM | 
13 | O=C1c2c(Br)sc(Br)c2C(=O)C1(O)O | > 100 µM | 
14 | O=C1CCSCCC(=O)Nc2ccccc2N1 | > 100 µM | 
15 | COc1ccc(N2C(=O)C(=O)N(c3ccc(N=Nc4ccccc4)cc3)C2=S)cc1 | 34.4 µM | 
16 | CC(=O)SC(C[N+](=O)[O-])c1ccc2c(c1)OCO2 (stereo not given) | 21.9 µM | 
17 | Cc1ccc(CSC(N)=Nc2ccccc2)cc1C | > 100 µM | 
18 | C=C1CCCCCCCCC/C=C/1SCCCSC | > 100 µM | 
19 | COc1cc(Nc2nc3cc(C(F)(F)F)ccc3nc2C(=O)O)cc(OC)c1OC | > 100 µM | 
20 | CCOc1cc(NC(C)=O)ccc1C(=O)NNS(=O)(=O)c1ccc(NC(C)=O)cc1 | > 100 µM | 
21 | NCCCN(CCCN)CCc1cn(C(=O)c2ccccc2)cn1 | 19.2 µM | 

Row | Structure (SMILES) | TGI | GI50
22 | COc1cccc(-c2nc(-c3cnccn3)n(C/C=C/c3ccccc3)n2)c1 | > 10 µM | 
23 | CC1(C)O[C@H]2OC(CO)C(N=[N+]=[N-])[C@H]2O1 (stereo not given in full) | > 100 µM | 
24 | Cc1[nH]n(-c2nc(O)c(-c3ccccc3)c(=O)[nH]2)c(=O)c1CCO | > 100 µM | 
25 | C=C1CC[C@H]2C(=O)OC(c3ccoc3)C[C@]2(C)C/C=C\C=C/1C(=O)OC (stereo not given in full) | > 25 µM | 
26 | CC(NC(=O)Cc1ccccc1)NC(=O)C(C)C(=O)NCc1ccccc1 (stereo not given) | > 100 µM | 
27 | CCOC(=O)CCC(NC(=O)C(Cc1ccccc1)NC(=O)OCc1ccccc1)C(=O)OCC (stereo not drawn) (Cbz-Phe-Glu(OEt)-OEt; configuration not given here) | 31.2 µM | 
28 | CCCCC1Cc2cc(O)ccc2-c2nc3cc(O)ccc3n21 (stereo not given) (tested in a mixture with another compound) | 33.7 µM | 
29 | COC(=O)N[C@H](C(=O)NC(OCc1ccccc1)C1COC(C)(C)O1)C(C)O[Si](C)(C)C(C)(C)C (stereo not given in full) | > 100 µM | 
30 | CC(=O)c1ccc2c(c1)C(=O)c1sc(C(C)=O)cc1C2=O | 1.54 µM and 1.5 µM | 0.405 µM
31 | O=Cc1ccc(-c2ccc(-c3ccc(CO)s3)o2)s1 | > 100 µM | 
32 | CCOP(=O)(OCC)/C(C#N)=C/c1ccc(-c2cc(C(F)(F)F)cc(C(F)(F)F)c2)o1 | 50.2 µM | 
33 | CC(=O)Nc1c(C(=N)C#N)ncn1CCO | > 100 µM | 
34 | CN1CCN(/C(N)=C(\C#N)C(=O)Nc2ccc(Cl)cc2)CC1 | > 100 µM | 
35 | O=C(NCCN1CCOCC1)c1ccc(I)cc1 | > 100 µM | 
36 | CN1CCCOC(c2ccc(Cl)cc2)O1 (stereo not given) | > 100 µM | 
37 | COc1ccc(/C(Cl)=C(\C#N)c2ccc(OC)c(OC)c2)cc1OC | > 100 µM | 
38 | CCOC(=O)CCC1(CCC(=O)OCC)CCCCCCCCC(CCC(=O)OCC)(CCC(=O)OCC)C(=O)C1=O | > 100 µM | 
39 | Cc1ccc2c(c1)CC1(Cc3cccc(C)c3C1=O)C2=O (stereo not given) | > 100 µM | 
40 | O=c1[nH]nc(Cc2ccc(Cl)cc2)n1/N=C/c1cccs1 | > 100 µM | 
41 | COCn1cnc2c(=O)nc(SC)n(-c3ccccc3)c21 | > 100 µM | 

Each compound was assayed on BT-549 breast (assay: NCI tumour cell line growth inhibition, 48 h).

Row | Structure (SMILES) | TGI
42 | COc1ccc(CNc2nc(NC3CCCCC3)nc(NC3CCCCC3)n2)cc1 | > 100 µM
43 | S=C1NCCN1C(=S)Nc1ccccc1 | > 100 µM
44 | CCOC(=O)c1ccc(-c2ccc(Cl)cc2)[nH]1 | > 10 µM
45 | CC1CC(Nc2ccc(Br)cc2)N(C(=O)c2ccc(Br)cc2)O1 (stereo not given) | > 10 µM
46 | COc1cc2c(cc1O)NC(=O)[C@@H]1CCCN1C2=O | > 100 µM
47 | COc1ccc2nc(-c3ccccc3)c(=O)[nH]c2c1 | > 100 µM
48 | O=C1C=C(Nc2ccc(S(=O)(=O)Nc3nccs3)cc2)c2ccccc2C1=O | 40.8 µM
49 | C=CC1(CC[C@]2(c3ccc(OC)c(OC)c3)C=[N+]([O-])O[C@H](O[C@@H]3CCCC[C@H]3C(C)(C)c3ccccc3)C2)OCC(C)(C)CO1 | 98.6 µM
50 | Oc1c(Br)ccc2cccnc12 | > 92.2 µM
51 | O=c1[nH]c2nc3ccccc3c(=O)n2/c1=C/c1cccs1 | > 100 µM
52 | Cc1cc(C)nc(NC(P(=O)(O)O)P(=O)(O)O)n1 | > 100 µM
53 | O=C1c2c(Br)sc(Br)c2C(=O)C1(O)O | 37.9 µM
54 | O=C1CCSCCC(=O)Nc2ccccc2N1 | > 100 µM
55 | CC(=O)SC(C[N+](=O)[O-])c1ccc2c(c1)OCO2 (stereo not given) | 14.2 µM
56 | Cc1ccc(CSC(N)=Nc2ccccc2)cc1C | 50.8 µM
57 | COc1cc(Nc2nc3cc(C(F)(F)F)ccc3nc2C(=O)O)cc(OC)c1OC | > 100 µM
58 | CCOc1cc(NC(C)=O)ccc1C(=O)NNS(=O)(=O)c1ccc(NC(C)=O)cc1 | > 100 µM

Row | Structure (SMILES) | TGI
59 | NCCCN(CCCN)CCc1cn(C(=O)c2ccccc2)cn1 | 35.1 µM
60 | COc1cccc(-c2nc(-c3cnccn3)n(C/C=C/c3ccccc3)n2)c1 | > 10 µM
61 | Cc1[nH]n(-c2nc(O)c(-c3ccccc3)c(=O)[nH]2)c(=O)c1CCO | > 100 µM
62 | C=C1CC[C@H]2C(=O)OC(c3ccoc3)C[C@]2(C)C/C=C\C=C/1C(=O)OC (stereo not given in full) | > 25 µM
63 | CC(NC(=O)Cc1ccccc1)NC(=O)C(C)C(=O)NCc1ccccc1 (stereo not given) | 75 µM
64 | CCOC(=O)CCC(NC(=O)C(Cc1ccccc1)NC(=O)OCc1ccccc1)C(=O)OCC (stereo not drawn) (Cbz-Phe-Glu(OEt)-OEt; configuration not given here) | > 100 µM
65 | CCCCC1Cc2cc(O)ccc2-c2nc3cc(O)ccc3n21 (stereo not given) (tested in a mixture with another compound) | 41.6 µM
66 | O=Cc1ccc(-c2ccc(-c3ccc(CO)s3)o2)s1 | 67.9 µM
67 | CCOP(=O)(OCC)/C(C#N)=C/c1ccc(-c2cc(C(F)(F)F)cc(C(F)(F)F)c2)o1 | 44.9 µM
68 | CN1CCN(/C(N)=C(\C#N)C(=O)Nc2ccc(Cl)cc2)CC1 | > 100 µM
69 | O=C(NCCN1CCOCC1)c1ccc(I)cc1 | > 100 µM
70 | CN1CCCOC(c2ccc(Cl)cc2)O1 (stereo not given) | > 100 µM
71 | CCC1CC(O)c2c(O)c3c(c(O)c2C1O)C(=O)c1cccc(O)c1C3=O (stereo not given) (tested in a mixture with another compound) | 0.0704 µM
72 | COc1ccc(/C(Cl)=C(\C#N)c2ccc(OC)c(OC)c2)cc1OC | > 100 µM
73 | O=c1[nH]nc(Cc2ccc(Cl)cc2)n1/N=C/c1cccs1 | 66.5 µM
74 | COCn1cnc2c(=O)nc(SC)n(-c3ccccc3)c21 | > 100 µM

These compounds were tested on HS 578T breast (assay: NCI tumour cell line growth inhibition, 48 h).

Row | Structure (SMILES) | TGI | GI50
75 | COc1ccc(CNc2nc(NC3CCCCC3)nc(NC3CCCCC3)n2)cc1 | > 100 µM | 
76 | S=C1NCCN1C(=S)Nc1ccccc1 | > 100 µM | 
77 | CCOC(=O)c1ccc(-c2ccc(Cl)cc2)[nH]1 | > 10 µM | 
78 | CC1CC(Nc2ccc(Br)cc2)N(C(=O)c2ccc(Br)cc2)O1 (stereo not given) | > 10 µM | 
79 | OC(C/C=N/N=C/CC(O)(C(F)(F)Cl)C(F)(F)Cl)(C(F)(F)Cl)C(F)(F)Cl | > 10 µM | 
80 | COc1cc2c(cc1O)NC(=O)[C@@H]1CCCN1C2=O | > 100 µM | 
81 | COc1ccc2nc(-c3ccccc3)c(=O)[nH]c2c1 | > 100 µM | 
82 | O=C1C=C(Nc2ccc(S(=O)(=O)Nc3nccs3)cc2)c2ccccc2C1=O | 75.1 µM | 
83 | Oc1c(Br)ccc2cccnc12 | 72.5 µM | 
84 | O=c1[nH]c2nc3ccccc3c(=O)n2/c1=C/c1cccs1 | > 100 µM | 
85 | Cc1cc(C)nc(NC(P(=O)(O)O)P(=O)(O)O)n1 | > 100 µM | 
86 | O=C1c2c(Br)sc(Br)c2C(=O)C1(O)O | > 100 µM | 
87 | O=C1CCSCCC(=O)Nc2ccccc2N1 | > 100 µM | 
88 | COc1ccc(N2C(=O)C(=O)N(c3ccc(N=Nc4ccccc4)cc3)C2=S)cc1 | > 100 µM | 
89 | CC(=O)SC(C[N+](=O)[O-])c1ccc2c(c1)OCO2 (stereo not given) | 45.3 µM | 
90 | Cc1ccc(CSC(N)=Nc2ccccc2)cc1C | 49.1 µM | 
91 | C=C1CCCCCCCCC/C=C/1SCCCSC | > 100 µM | 
92 | COc1cc(Nc2nc3cc(C(F)(F)F)ccc3nc2C(=O)O)cc(OC)c1OC | > 100 µM | 
93 | CCOc1cc(NC(C)=O)ccc1C(=O)NNS(=O)(=O)c1ccc(NC(C)=O)cc1 | > 100 µM | 
94 | NCCCN(CCCN)CCc1cn(C(=O)c2ccccc2)cn1 | 86.5 µM | 
95 | COc1cccc(-c2nc(-c3cnccn3)n(C/C=C/c3ccccc3)n2)c1 | > 10 µM | 
96 | CC1(C)O[C@H]2OC(CO)C(N=[N+]=[N-])[C@H]2O1 (stereo not given in full) | > 100 µM | 
97 | Cc1[nH]n(-c2nc(O)c(-c3ccccc3)c(=O)[nH]2)c(=O)c1CCO | > 100 µM | 
98 | C=C1CC[C@H]2C(=O)OC(c3ccoc3)C[C@]2(C)C/C=C\C=C/1C(=O)OC (stereo not given in full) | > 25 µM | 
99 | CC(NC(=O)Cc1ccccc1)NC(=O)C(C)C(=O)NCc1ccccc1 (stereo not given) | 83.3 µM | 
100 | CCOC(=O)CCC(NC(=O)C(Cc1ccccc1)NC(=O)OCc1ccccc1)C(=O)OCC (stereo not drawn) (Cbz-Phe-Glu(OEt)-OEt; configuration not given here) | 35 µM | 
101 | CCCCC1Cc2cc(O)ccc2-c2nc3cc(O)ccc3n21 (stereo not given) (tested in a mixture with another compound) | 35.1 µM | 
102 | COC(=O)N[C@H](C(=O)NC(OCc1ccccc1)C1COC(C)(C)O1)C(C)O[Si](C)(C)C(C)(C)C (stereo not given in full) | > 100 µM | 
103 | CC(=O)c1ccc2c(c1)C(=O)c1sc(C(C)=O)cc1C2=O | 50 µM and 7.03 µM | 2.21 µM
